Where a SMILES comes first, the peptide text is derived from it. The star is where a group is joined. Cbz = O=C(OCc1ccccc1)*; CH2F = FC*
What was measured:
[1] = tested on: BMDC; experiment: Cell death of BMDC by TUNEL assay; type: cell-based, mice
Experimental: (§1) The preparation of bone marrow-derived dendritic cells (BMDC) was done according to the method of Lutz et al. (26) using GM-CSF ([…] PeproTech, Rocky Hill N.J.) or GM-CSF plus IL-4 (10 μg/ml, PeproTech). Cells were used on day 7.
Cell death was examined by terminal deoxynucleotidyl transferase dUTP nick end labeling (TUNEL). Briefly, cells were stained for expression of cell surface molecules, and then fixed with 1% methanol-free formaldehyde followed by 70% ethanol. After washing, the TUNEL reaction was performed by incubating cells in 50 μl of reaction mix containing 10 units of terminal deoxribosyl transferase (TdT), 2.5 mM cobalt chloride in 1× TdT buffer, and 0.2 pmol/μl of FITC-dUTP (Roche, Indianapolis, Ind.) at 37° C. for 1 hour. The cells were washed twice and fixed in 1% methanol-free formaldehyde. Murine thymocytes were included as a positive control for apoptotic cells. Flow cytometry was performed on an LSRII (BD Biosciences, San Jose, Calif.) calibrated with compensation beads (BD Biosciences). Analysis was performed using FlowJo software (Tree Star, Inc., Ashland, Oreg.).

[2] = tested on: γδ T cells; experiment: Mixed cultures of γδ T cells and BMDC: γδ T cell activation (IL-17, IFN-γ, CD25); type: cell-based, mice
Experimental: Cells were washed three times and then rocked with goat anti-rat conjugated magnetic beads at a 10:1 ratio of beads to cell at 4° C. for 45 min. Magnetic depletion was used to remove bead-bound cells. […] After 2 days, cells were removed from anti-TCR-γδ stimulation, supplied with fresh medium plus IL-2, and returned to culture at a density of 0.3×10^6 cells/ml. Cells were counted daily and supplied with fresh media containing 50 units/ml IL-2. […] In addition, in some experiments freshly isolated splenic γδ T cells were prepared using anti-γδ-coated magnetic beads (Miltenyi Biotec) and magnet purification.
as §1
Day 7 γδ T cells and BMDC were cultured either individually or together at a 1:1 ratio (10^6 cells/ml each). To some cultures the following reagents were added: a sonicate of Borrelia burgdorferi (10 μg/ml), zVAD-fmk (MP Biomedical, Santa Ana Calif.) at the doses indicated, necrostatin (50 μM, R&D Systems, Minneapolis, Minn.), anti-TNF-α (10 μg/ml, Calbiochem, Darnstadt, Germany),, anti-IL-1 Receptor antagonist, Anakinra (200 ng/ml, Amgen, Thousand Oaks, Calif.), anti-IL-12 (10 μg/ml, BioLegend San Diego, Calif.), anti-IL-18 (10 μg/ml, MBL, Woburn Mass.), or rat IgG (10 μg/ml Jackson Immunoresearch, West Grove Pa.). Transwell assays were performed using 1×10^6 γδ T cells in 1 ml of complete medium+IL-2 placed in the lower chamber, with 5×10^5 DC in 100 μl placed in the upper chamber. […]
Cytokine levels of IFN-γ, IL-1β, IL-12p40, IL-12p70, IL-17, and TNF-α were detected using the Bio-Plex, MilliPlex, or Luminex immunoassay (Bio-Rad; Millipore-EMD; R&D Systems, Minneapolis, Minn.) according to the manufacturer's protocol. Briefly, samples were run undiluted or diluted 1:10 in RPMI complete media. 50 μl of the magnetic bead working solution was added to each well, then 50 μl of appropriate samples or standards were then added to wells and incubated at room temperature for 30-120 min at 800 rpm on an IKA MS 3 digital shaker. After three washes with 100 μl Bio-Plex wash buffer, incubation with 25 μl of detection antibody solution was done at room temperature for 30-60 min on the shaker. Following another set of three washes, 50 μl of streptavidin-phycoerythrin (PE) in assay buffer was added to each well and incubated as described for the previous step. After an additional three washes, 125 μl of assay buffer was added. Sample data was analyzed with Bio-Plex Manager software.
The following monoclonal antibodies to murine cell surface molecules were purchased from BioLegend: PE-conjugated anti-CD25, APC-conjugated anti-TCR-γδ, and TNF-α neutralizing antibody. Rat IgG was purchased from Jackson Immunoresearch (West Grove, Pa.). For direct staining, single cell suspensions (1×10^6 total cells per staining condition) were washed with cold (4° C.) PBS containing 1% (w/v) BSA fraction V (Sigma) (PBS/1% BSA), incubated with unconjugated rat IgG (50 μg/ml) for 15 min at 4° C., washed again, and then incubated with the appropriate antibodies in PBS/1% BSA. After washing, the cells were fixed with freshly made 1% (v/v) methanol-free formaldehyde (Ted Pella Inc., Redding, Calif.) in PBS/1% BSA.

[3] = cultured γδ T cells + zVAD-treated BMDC, presence of B. burgdorferi, zVAD 50 μM, 20 h
[4] = freshly isolated splenic γδ T cells + zVAD-treated DC + Borrelia
[5] = freshly isolated splenic γδ T cells + zVAD-treated DC, absence of Borrelia
[6] = zVAD-treated BMDC, absence of Borrelia

For `CC(C)[C@H](NC(=O)OCc1ccccc1)C(=O)N[C@@H](C)C(=O)N[C@@H](CC(=O)O)C(=O)CF` [zVAD, N-benzyloxycarbonyl-Val-Ala-Asp-fluoromethyl ketone] (Cbz-Val-Ala-Asp-CH2F), the “dead BMDC” value ([1]; 50 μM zVAD, BMDC grown in GM-CSF, within 18 hours, dose-dependent) was roughly 80%, the “cell death of BMDC” value ([1]; GM-CSF+IL-4-cultured BMDC with zVAD, compared to BMDC cultured with only GM-CSF) was “greatly reduced cell death” and the “expression of surface CD25 on γδ T cells” value [2, 3] was “increased expression”. The “production of IFN-γ by γδ T cells” value [2, 3] was “augmented production”, the “production of IL-17 by γδ T cells” value [2, 3] was “augmented production” and the “production of IFN-γ by fresh γδ T cells” value [2, 4] was “greatly augmented production”. For the same compound, the “production of IL-17 by fresh γδ T cells” value [2, 4] was “greatly augmented production”, the “production of IFN-γ by fresh γδ T cells” value [2, 5] was “occurred even in the absence of Borrelia” and the “production of IL-17 by fresh γδ T cells” value [2, 5] was “occurred even in the absence of Borrelia”. For the same compound, the “activation of γδ T cells in transwell assay” value ([2]; no cell contact, BMDC+Borrelia+zVAD in upper chamber) was “partial activation”, the “activation of γδ T cells by supernatants alone” value ([2]; supernatants from cultures with BMDC+Borrelia+zVAD, no added BMDC or Borrelia) was “could augment activation” and the “production of IFNγ by γδ T cells” value [2, 6] was “some production”. The “production of IL-17 by γδ T cells” value [2, 6] was “some production”.

Source: patent publication US10456441B2, “Augmenting the immune response by promoting cell death of immune cells” (The University of Vermont and State Agricultural College, priority 2014, dated 2019)
